# Measured values as given in US5405760A, “Process for producing recombinant McrBC endonuclease and cleavage of methylated DNA” (New England Biolabs, Inc., priority 1992, dated 1995).
# Legend:
# methylated DNA = test: McrBC cleavage of plasmid and phage DNA modified by methylases; format: biochemical
# Description: The recognition sequence of the endonuclease of the present invention may be determined by mapping the locations of McrBC cleavage in various DNAs and comparing the DNA sequences of these regions for homology.
# McrBC was also found to cleave M.AluI-methylated doublestranded pUC19 linearized at the AflIII site to generate fragments of 2.25 kb, 1.9 kb, 1.75 kb, 1.275 kb, 1.15 kb, 1.05 kb 0.94 kb, 0.25 kb and 0.27 kb, consistent with cleavage near nucleotides 250, 2300, 1350 and 325. McrBC also cleaves the following: M.HaeIII-methylated (GGmCC) pUC19 linearized at the AflIII site to generate fragments of 2.25 kb, 1.8 kb, 1.25 kb, 1.05 kb, 0.94 kb, 0.5 kb, and 0.45 kb, consistent with cleavage near nucleotide 1600, 2500, 350 and 550; M.HhaI-methylated (GmCGC) pBR322 near nucleotides 434-494 and near nucleotides 594-548; M.HhaI-methylated pUC19 linearized at the AflIII site to generate bands of 2.25 kb, 1.9 kb, 1.15 kb, and 0.94 kb, consistent with cleavage near nucleotides 0 or 60, 2350, 1500 and 620; M.MspI-modified (mCCGG) pUC19 linearized at the AflIII site to generate bands of 1.6 kb, 1.5 kb, 1.0 kb and 0.9 kb, consistent with cleavage near nucleotides 1500 and 1600. In addition, McrBC degrades the following: M.SssI modified (mCG) pBR322 and M.SssI modified pUC19 DNA; agarose-embedded cellular DNA of Escherichia coli carrying ppvuIIM1.9, which is M.PvuII modified ([…]).
# pBR322 was modified by M.AluI by standard methods, cleaved with ClaI, and resuspended at 0.1 μg/μl. This substrate was recleaved with one of four restriction endonucleases that cleave once in pBR322 (AflIII, NdeI, ScaI, or SspI). These reactions (0.4 μg DNA in each, cleaved in a volume of 20 μl with the appropriate buffer supplied by New England Biolabs) were phenol extracted, precipitated by addition of ethanol in the presence of salt, and resuspended in dH2 O. Half of each reaction (0.2 μg) was digested with McrBC (1 μl each of McrBL and McrC; McrBL was similar to McrBL fraction iii of EXAMPLE III; McrC was similar to McrC fraction ii of EXAMPLE III). Reactions were loaded onto an agarose gel, with size standards (pBR322 digested with BstNI; NEB #301-1) and the sizes of the various fragments determined from a log-linear plot of cm migration (from a Polaroid photograph) versus known size of size standards. Sizes of fragments larger than the largest size standard were estimated by extrapolation and are indicated by "~". Sizes were lane 1, size standard: 1857, 1060, 929, 383, 121 bp; lane 2, AflIII+McrBC: >4 kb (faint, partial digest product), ~2.5, ~2.2, 1.7, 0.7 kb; lane 3, AflIII: ~2.6, ~2.1 (expected sizes 2.449, 1.912); lane 4, NdeI+McrBC: ~ 2.2, ~2.1, 1.8, 0.4 kb; lane 5, NdeI: ~2.5, ~2.2 kb (expected sizes 2.272, 2.089); lane 6, McrBC: ~2.2, 1.7, 0.93, 0.66, 0.48 kb; lane 7, ScaI: ~3.7, 0.54 (expected sizes 3.822, 0.541); lane 8, ScaI+McrBC: ~2.1, ~1.9, 1.1, 0.66, 0.60, 0.54 kb; lane 9, SspI: ~3.7, 0.28 kb (expected sizes 4.146, 0.215); lane 10, SspI+McrBC: ~2.2, 1.35, 0.66, 0.56 kb.
# DNA used was pUC19 linearized at the AflIII site, obtained by standard procedures, and then methylated (0.8 μg) in a reaction containing 8 μl 10 X buffer (for M.AluI, M.HhaI, and M.HpaII this was 10XM.FnuDII buffer: 500 mM Tris[Cl] pH 7.5, 100 mM EDTA, 50 mM β-mercaptoethanol;for M.HaeIII, 500 mM Tris [Cl] pH 8.5; 500 mM NaCl, 10 mM dithiothreitol; for M.MspI, 500 mM Tris, pH 7.5, 500 mM NaCl, 50 mM β-mercaptoethanol; for M.SssI, 500 mM Tris Cl, pH 8.0, 500 mM NaCl, 100 mM EDTA), 8 μl S-adenosylmethionine (32 mM in 5 mM H2 SO4, 10% ethanol) and 4 μl methylase (M.AluI, 5 units/μl; M.HaeIII, 5 units/μl; M.HhaI, 25 units/μl; M.HpaII, 1-5 units/μl,M.MspI, 5 units/μl, M.SssI, 2 units/μl) in a total volume of 82 μl. Methylation reactions were incubated 90 minutes at 37° C., then heat-killed by incubation for 15 minutes at 67°-70° C. These substrates were then distributed to 6 series of 7 tubes for McrBC titration. […]
# [1] = test system: DNA from bacteriophages T4αgt βgt dam^h dam1 and T6αgt; test: McrBC cleavage of 5-hydroxymethylcytosine-containing phage DNA; format: biochemical, bacteriophages T4 and T6; details: hmC DNA first treated with EcoRI or SspI, then McrBC with GTP
# Method: (§1) Accordingly, the DNA Escherichia coli W3110(ppvuIIM1.9), which is modified in the sequence CAGCTG at the N^4 position of the central cytosine to generate the sequence CAGm4CTG, was treated with. McrBC in the presence of GTP following embedding of the cultured cells in agarose and subsequent lysis in situ to release the DNA, by standard procedures for in situ digestion. DNA carrying this modification was cleaved into many fragments of sizes smaller than 50 kb. From this evidence it was concluded that McrBC recognizes sequences containing N^4 C. In addition, DNA from bacteriophages T4αgt βgt dam^h dam1 and T6αgt, containing 5-hydroxymethylcytosine in place of cytosine and devoid of N^6 -methyladenine, was first treated with EcoRI or SspI and then treated with McrBC in the presence of GTP. Both of these DNAs were cleaved to produce many fragments smaller than 700 bp. From this evidence it was concluded that McrBC recognizes sequences containing hm5C as well m5C and N^4 -methylcytosine.
# [2] = test system: DNA Escherichia coli W3110(ppvuIIM1.9); test: McrBC digestion of agarose-embedded M.PvuII-modified cellular DNA; format: biochemical
# Method: as §1
# [3] = Properties of the McrBC cleavage reaction (pH, ratio of components); format: biochemical
# Description: (a) pH optimum: Activity is detectable when the pH of the reaction is lowered to about 5.8.
# Higher or lower ratios reduce cleavage activity.
substance,measurement,setting,value
"McrBC: DNA endonuclease obtainable from Escherichia coli; components McrBL and McrC, substantially free of McrBS",degradation of substrate DNA,"methylated DNA; Dcm-modified (CmCWGG) pBR322, pUC19 or bacteriophage lambda DNA",does not degrade
same,cleavage of substrate DNA,methylated DNA; M.AluI-methylated pUC19 linearized at the AflIII site,cleave
same,cleavage of substrate DNA,methylated DNA; M.HaeIII-methylated (GGmCC) pUC19 linearized at the AflIII site,cleaves
same,cleavage of substrate DNA,methylated DNA; M.HhaI-methylated (GmCGC) pBR322,cleaves
same,cleavage of substrate DNA,methylated DNA; M.HhaI-methylated pUC19 linearized at the AflIII site,cleaves
same,degradation of substrate DNA,"methylated DNA; M.HpaII-modified (Cm5CGG) pBR322, pUC19 or bacteriophage lambda DNA",does not degrade
same,cleavage of substrate DNA,methylated DNA; M.MspI-modified (mCCGG) pUC19 linearized at the AflIII site,cleaves
same,degradation of substrate DNA,methylated DNA; M.SssI modified (mCG) pBR322 and pUC19,degrades
same,degradation of substrate DNA,"methylated DNA; pBR322, pUC19 or bacteriophage lambda modified by both Dcm and M.HpaII",does not degrade
same,cleavage of substrate DNA,methylated DNA; pBR322 DNA methylated by M.AluI (AGm5CT),cleave
same,size of fragments produced by cleavage,[1],smaller than 700 bp
same,size of fragments produced by cleavage,"[2]; CAGm4CTG-modified DNA, in the presence of GTP, in situ digestion",smaller than 50 kb
same,degradation of substrate DNA,"[2]; agarose-embedded cellular DNA of Escherichia coli carrying ppvuIIM1.9, M.PvuII modified (GAm4CGTC)",degrades
same,pH to which the reaction can be lowered with activity detectable,[3],about 5.8
